Source: PMC9297976 (Journal of Applied Toxicology, 2021)

How the values were obtained:
[1] = target: T1, medaka Esr1 (mEsr1) (Oryzias latipes, UniProt P50241); assay: Medaka Esr1 reporter gene assay, antagonist assay; type: cell-based, Japanese medaka (Oryzias latipes); conditions: E2 spiked at 1.0 nM (B); MAC = 1.0 × 10^−5 M
T1 sequence (P50241 1-620): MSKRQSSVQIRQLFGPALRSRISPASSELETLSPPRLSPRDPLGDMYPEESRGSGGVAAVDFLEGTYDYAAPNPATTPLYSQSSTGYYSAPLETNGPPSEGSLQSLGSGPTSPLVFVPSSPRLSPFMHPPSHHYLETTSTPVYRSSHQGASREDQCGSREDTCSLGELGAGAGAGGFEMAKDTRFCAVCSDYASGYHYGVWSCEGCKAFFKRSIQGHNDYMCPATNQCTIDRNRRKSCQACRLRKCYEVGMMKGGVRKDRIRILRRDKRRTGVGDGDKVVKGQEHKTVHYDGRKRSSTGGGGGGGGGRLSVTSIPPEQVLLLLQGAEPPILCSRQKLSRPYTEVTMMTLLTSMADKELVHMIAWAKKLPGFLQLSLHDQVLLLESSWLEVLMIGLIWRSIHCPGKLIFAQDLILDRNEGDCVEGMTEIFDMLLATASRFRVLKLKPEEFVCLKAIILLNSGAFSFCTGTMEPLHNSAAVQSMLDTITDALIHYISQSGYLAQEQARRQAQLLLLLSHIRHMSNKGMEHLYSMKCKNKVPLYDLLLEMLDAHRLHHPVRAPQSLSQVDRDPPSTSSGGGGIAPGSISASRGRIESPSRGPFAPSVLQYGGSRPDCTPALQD

[2] = target: T2, medaka ARβ (mArβ) (Oryzias latipes, UniProt D1MV73); assay: Medaka ARβ reporter gene assay, agonist assay; type: cell-based, Japanese medaka (Oryzias latipes)
T2 sequence (D1MV73 1-744): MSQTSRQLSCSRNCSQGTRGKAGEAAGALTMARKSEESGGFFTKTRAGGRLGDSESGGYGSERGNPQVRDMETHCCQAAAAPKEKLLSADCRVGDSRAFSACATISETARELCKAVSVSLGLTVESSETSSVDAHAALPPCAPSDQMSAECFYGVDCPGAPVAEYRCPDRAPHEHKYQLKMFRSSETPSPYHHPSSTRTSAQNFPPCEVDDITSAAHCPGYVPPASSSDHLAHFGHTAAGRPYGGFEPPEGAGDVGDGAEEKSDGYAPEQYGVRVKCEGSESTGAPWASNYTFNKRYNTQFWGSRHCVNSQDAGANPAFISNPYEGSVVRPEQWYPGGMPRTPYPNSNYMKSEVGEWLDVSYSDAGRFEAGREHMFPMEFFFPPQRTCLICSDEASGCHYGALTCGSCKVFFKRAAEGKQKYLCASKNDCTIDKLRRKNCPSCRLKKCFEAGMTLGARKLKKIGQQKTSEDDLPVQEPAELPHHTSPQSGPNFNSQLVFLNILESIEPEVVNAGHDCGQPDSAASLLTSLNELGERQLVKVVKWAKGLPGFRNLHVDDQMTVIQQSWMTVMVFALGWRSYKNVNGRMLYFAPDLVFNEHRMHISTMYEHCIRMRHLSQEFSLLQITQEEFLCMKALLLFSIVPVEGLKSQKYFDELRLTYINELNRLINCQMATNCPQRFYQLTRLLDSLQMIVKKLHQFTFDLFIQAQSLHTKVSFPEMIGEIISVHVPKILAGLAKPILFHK

[3] = target: T1, medaka Esr1 (mEsr1); assay: cell-based; design: species or system Japanese medaka (Oryzias latipes)
[4] = target: T2, medaka ARβ (mArβ); assay: Medaka ARβ reporter gene assay, antagonist assay; type: cell-based, Japanese medaka (Oryzias latipes)
[5] = tested on: Japanese medaka (Oryzias latipes); assay: Fish Short‐Term Reproduction Assay; type: in vivo; conditions: for GSI Female / GSI Male / HSI Female / HSI Male / Length Female / Length Male / Weight Female / Weight Male: completion of exposure
[6] = measured concentration 25.3 μg/L
[7] = measured concentration 82.3 μg/L
[8] = measured concentration 250 μg/L

Oc1cccc2ccccc12 [Chemical 1NT, 1‐Naphtol]
Antagonistic activity [1]: NE (MAC = 1.0 × 10^−5 M)^(B)
Agonistic activity PC10 ([2]; HepG2 cells, concentration with 10% of maximum activity of 11KT): PC10 = 3.3 × 10^−5 M
Agonistic activity on mArβ (in words) ([2]; only PC10 and not EC50 could be estimated): positive agonistic activity
In vitro positive: Esr ([3]; mode of action in which EC50 or PC10 was obtained in RGA): Esr
EC50 ([3]; read-out: Agonistic activity EC50, HEK293 cells): 78 µM
Antagonistic activity ([4]; 11‐KT spiked at 10 nM (C), MAC = 1.0 × 10^−4 M): NE (MAC = 1.0 × 10^−4 M)^(C)

CC(C)(C)CC(C)(C)c1ccc(O)cc1 [Chemical 4tOP, 4‐tert‐Octylphenol]
Fertility rate ([5]; 25.3 μg/L measured, 21 d): 91 ± 5.1%
Hepatic VTG, female ([5]; 25.3 μg/L measured, 21 d): 3,710 ± 617 ng/mg‐liver
Hepatic VTG, male ([5]; 25.3 μg/L measured, 21 d): 3.2 ± 2.2 ng/mg‐liver
Mortality ([5]; 25.3 μg/L measured, 21 d): 0.0%
Mortality, number of dead fish ([5]; 25.3 μg/L measured, 21 d): 0
Number of fertilized eggs (per female per day) ([5]; 25.3 μg/L measured, 21 d): 24 ± 3.5
Number of total eggs (per female per day) ([5]; 25.3 μg/L measured, 21 d): 26 ± 3.2
SSC female (joint plates with papillary processes) ([5]; 25.3 μg/L measured, 21 d): 0 ± 0
SSC male (joint plates with papillary processes) ([5]; 25.3 μg/L measured, 21 d): 99 ± 4.1
Fertility rate ([5]; 82.3 μg/L measured, 21 d): 92 ± 2.1%
Hepatic VTG, female ([5]; 82.3 μg/L measured, 21 d): 4,380 ± 1,350 ng/mg‐liver
Mortality ([5]; 82.3 μg/L measured, 21 d): 4.2%
Mortality, number of dead fish ([5]; 82.3 μg/L measured, 21 d): 1
Number of fertilized eggs (per female per day) ([5]; 82.3 μg/L measured, 21 d): 24 ± 1.5
Number of total eggs (per female per day) ([5]; 82.3 μg/L measured, 21 d): 27 ± 1.3
SSC female (joint plates with papillary processes) ([5]; 82.3 μg/L measured, 21 d): 0 ± 0
Hepatic VTG, male ([5]; 82.3 μg/L measured, 21 d, sig. ↑ vs control): 5.6 ± 1.9 ng/mg‐liver
Fertility rate ([5]; 250 μg/L measured, 21 d): 89 ± 3.3%
Hepatic VTG, female ([5]; 250 μg/L measured, 21 d): 5,290 ± 2030 ng/mg‐liver
Mortality ([5]; 250 μg/L measured, 21 d): 0.0%
Mortality, number of dead fish ([5]; 250 μg/L measured, 21 d): 0
Number of fertilized eggs (per female per day) ([5]; 250 μg/L measured, 21 d): 21 ± 2.6
Number of total eggs (per female per day) ([5]; 250 μg/L measured, 21 d): 23 ± 2.6
SSC female (joint plates with papillary processes) ([5]; 250 μg/L measured, 21 d): 0 ± 0
SSC male (joint plates with papillary processes) ([5]; 250 μg/L measured, 21 d): 98 ± 8.5
LOEC, elevated hepatic VTG in males ([5]; 21 d): 82.3 µg/L
LOECREPRO ([5]; LOEC on reproduction (fecundity and/or fertility)): ND (>250) μg/L
minimal effective concentration ([5]; Oryzias latipes, 504 h, read-out: LOECmVTG): 0.0823 µg/mL
LOECTOX ([5]; lowest observed effect concentration on mortality): ND (>250) μg/L
GSI Female [5, 6]: 11.4 ± 1.6%
GSI Male [5, 6]: 0.83 ± 0.11%
HSI Female [5, 6]: 4.6 ± 0.82%
HSI Male [5, 6]: 2.1 ± 0.16%
Length Female [5, 6]: 37.8 ± 0.5 mm
Length Male [5, 6]: 37.0 ± 0.9 mm
Weight Female [5, 6]: 625 ± 55 mg
Weight Male [5, 6]: 608 ± 31 mg
GSI Female [5, 7]: 10.7 ± 0.4%
GSI Male [5, 7]: 0.81 ± 0.08%
HSI Female [5, 7]: 4.1 ± 0.58%
HSI Male [5, 7]: 2.6 ± 0.10%
Length Female [5, 7]: 37.0 ± 0.2 mm
Length Male [5, 7]: 37.9 ± 0.6 mm
Weight Female [5, 7]: 599 ± 16 mg
Weight Male [5, 7]: 630 ± 44 mg
GSI Female [5, 8]: 11.1 ± 2.0%
GSI Male [5, 8]: 0.81 ± 0.08%
HSI Female [5, 8]: 4.5 ± 0.29%
HSI Male [5, 8]: 2.9 ± 0.28%
Length Female [5, 8]: 36.7 ± 0.5 mm
Length Male [5, 8]: 37.4 ± 0.4 mm
Weight Female [5, 8]: 605 ± 10 mg
Weight Male [5, 8]: 626 ± 21 mg
Agonistic activity ([2]; MAC = 1.0 × 10^−5 M): NE (MAC = 1.0 × 10^−5 M)
Antagonistic activity ([4]; 11‐KT spiked at 50 nM (D), MAC = 1.0 × 10^−5 M): NE (MAC = 1.0 × 10^−5 M)^(D)
